This is an account of results in paper PMC7413254 (Nature Communications, 2020).

Common to all, as to format: cell-based
Test [1] concerns the target T1, PfNT1 (Plasmodium falciparum, UniProt Q8IDM6).
T1 construct: expressed in transfected cells; host or cells: Xenopus laevis oocytes (stage V-VI), cRNA-injected
The test can be described thus: cell-based. The conditions noted are these: trans-stimulation, solute 45 mM injected (estimated intracellular). In short, it runs like this:
(§1)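 Transport measured in Xenopus oocytes expressing the transporters, 1.5 h at 27.5 °C in ND96 pH 5.5 unless noted. For trans-stimulation, VF-6 injected in 25 nL ND96 at pH 5.0–7.0 or Na^+-free (choline) buffer; intracellular levels based on ~400 nL oocyte volume. Ten oocytes per treatment, ≥4 experiments.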

Test [2] deals with PfCRT^3D7 (Plasmodium falciparum, UniProt Q8IBZ9). The test can be described thus: cell-based. The settings on record: for [3H]CQ transport, PfCRT3D7 (% PfCRT3D7 control): trans-stimulation, solute 45 mM injected (estimated intracellular); for PfCRT-mediated [3H]CQ transport, trans-stimulation (% PfCRT3D7 control): PfCRT3D7 oocytes, normalised to oocyte type control. In short, it runs like this: as §1

Test [3] deals with T2, PfCRT^Ecu1110 (Plasmodium falciparum, UniProt Q9N623, A220S/I356L/K76T/N326D). In words: [3H]CQ uptake into Xenopus oocytes, cis-inhibition by unlabelled solute. The conditions noted are these: for PfCRT-mediated [3H]CQ transport, cis-inhibition (% PfCRTEcu1110 control): PfCRTEcu1110 oocytes, background [3H]CQ accumulation subtracted, normalised to oocyte type control; for [3H]CQ transport (% PfCRTEcu1110 control), cis-inhibition, PfCRTEcu1110: PfCRT-mediated component (background subtracted), sheet title says normalised to PfCRTDd2 control, mean ± SEM, SEM. Summed up: (§2)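 Radioactivity accumulated per oocyte, read by liquid scintillation after 10% SDS lysis, served as the uptake measure. Incubations ran 1.5 h at 27.5 °C in ND96 at pH 5.5, matching digestive-vacuole acidity.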

For test [4], the target named is T3, PfCRT^Dd2 (Plasmodium falciparum, UniProt Q9N623, A220S/I356T/K76T/M74I/N326S/N75E/Q271E/R371I). Described as above. The settings on record: PfCRTDd2 oocytes, background [3H]CQ accumulation subtracted, normalised to oocyte type control. In short, it runs like this:
as §2

The target in test [5] is T2, PfCRT^Ecu1110. The test can be described thus: cell-based. The conditions noted are these: for PfCRT-mediated [3H]CQ transport, trans-stimulation (% PfCRTEcu1110 control): PfCRTEcu1110 oocytes, normalised to oocyte type control; for [3H]CQ transport (% PfCRTDd2 control), trans-stimulation, PfCRTEcu1110: PfCRT-mediated component (background subtracted), sheet title says normalised to PfCRTDd2 control, mean ± SEM, SEM. Summed up:
as §1

For test [6], the target named is T3, PfCRT^Dd2. The test can be described thus: cell-based. The settings on record: for PfCRT-mediated [3H]CQ transport, trans-stimulation (% PfCRTDd2 control): PfCRTDd2 oocytes, normalised to oocyte type control; for [3H]CQ transport (% PfCRTDd2 control), trans-stimulation, PfCRTDd2: PfCRT-mediated component (background subtracted), mean ± SEM, SEM. Summed up: as §1

The mark [7] stands for this setting: [test solute]i = 5 mM (intracellular).
Where [8] appears, read: [test solute]i = 45 mM (intracellular; 30 mM for some solutes due to solubility).
The mark [9] stands for this setting: [test solute]i = 5 mM (injected).
Setting [10] is: [test solute]i = 45 mM (30 mM for some solutes due to solubility).

PfCRT^3D7, sequence (Q8IBZ9 59-398): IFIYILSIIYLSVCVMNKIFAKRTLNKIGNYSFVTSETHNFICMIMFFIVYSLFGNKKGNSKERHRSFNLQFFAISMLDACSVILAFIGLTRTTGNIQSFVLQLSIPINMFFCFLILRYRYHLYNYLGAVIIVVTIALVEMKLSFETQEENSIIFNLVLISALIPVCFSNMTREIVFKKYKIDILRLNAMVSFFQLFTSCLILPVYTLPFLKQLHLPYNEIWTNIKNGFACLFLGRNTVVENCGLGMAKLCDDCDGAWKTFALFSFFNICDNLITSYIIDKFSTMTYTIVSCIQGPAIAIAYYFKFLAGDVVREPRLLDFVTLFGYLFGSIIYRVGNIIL
T2 sequence (Q9N623 whole entry A220S/I356L/K76T/N326D): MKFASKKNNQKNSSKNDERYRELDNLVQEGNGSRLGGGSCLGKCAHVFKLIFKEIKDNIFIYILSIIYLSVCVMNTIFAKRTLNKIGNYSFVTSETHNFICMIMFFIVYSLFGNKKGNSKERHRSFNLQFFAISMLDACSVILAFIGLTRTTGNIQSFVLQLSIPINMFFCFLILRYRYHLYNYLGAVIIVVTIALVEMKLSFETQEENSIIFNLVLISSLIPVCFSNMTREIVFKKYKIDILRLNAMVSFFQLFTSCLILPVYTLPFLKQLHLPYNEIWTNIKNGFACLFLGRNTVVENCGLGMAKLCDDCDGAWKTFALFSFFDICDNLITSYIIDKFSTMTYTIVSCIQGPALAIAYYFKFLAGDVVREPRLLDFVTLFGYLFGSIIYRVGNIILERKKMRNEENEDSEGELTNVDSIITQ
T1 sequence (Q8IDM6 whole entry): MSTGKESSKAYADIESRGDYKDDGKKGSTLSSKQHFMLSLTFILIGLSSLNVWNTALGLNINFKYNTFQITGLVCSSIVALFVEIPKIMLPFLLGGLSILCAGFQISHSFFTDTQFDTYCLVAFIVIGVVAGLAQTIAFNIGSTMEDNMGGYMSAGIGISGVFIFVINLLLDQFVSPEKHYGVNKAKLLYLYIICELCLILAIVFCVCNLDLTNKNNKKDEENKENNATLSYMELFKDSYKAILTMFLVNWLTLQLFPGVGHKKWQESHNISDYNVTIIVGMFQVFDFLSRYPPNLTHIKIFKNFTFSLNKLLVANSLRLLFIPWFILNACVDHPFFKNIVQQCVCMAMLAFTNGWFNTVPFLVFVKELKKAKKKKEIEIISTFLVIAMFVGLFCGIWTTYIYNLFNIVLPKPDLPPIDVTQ
T3 sequence (Q9N623 whole entry A220S/I356T/K76T/M74I/N326S/N75E/Q271E/R371I): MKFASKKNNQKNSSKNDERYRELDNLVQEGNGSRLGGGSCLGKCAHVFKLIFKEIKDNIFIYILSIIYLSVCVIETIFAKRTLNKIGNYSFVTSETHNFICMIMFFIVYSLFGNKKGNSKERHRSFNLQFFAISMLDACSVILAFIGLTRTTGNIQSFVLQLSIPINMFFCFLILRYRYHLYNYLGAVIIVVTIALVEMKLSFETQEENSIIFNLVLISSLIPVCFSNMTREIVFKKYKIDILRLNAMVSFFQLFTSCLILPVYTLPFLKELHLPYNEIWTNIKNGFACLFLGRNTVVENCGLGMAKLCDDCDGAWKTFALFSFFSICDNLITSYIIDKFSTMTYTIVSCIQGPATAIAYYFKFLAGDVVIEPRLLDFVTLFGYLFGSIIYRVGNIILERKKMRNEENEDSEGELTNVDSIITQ

As for AHAGEYGAEALE [AE-12], the “[3H]CQ transport, PfNT1 (% PfCRTDd2 control)” value in test [1] (Experiment 1) is on record as 2.23 % PfCRTDd2 control; in test [1] (Experiment 2) it was 2.37 % PfCRTDd2 control; in test [1] (Experiment 3), 2.71 % PfCRTDd2 control; in test [1] (Experiment 4), 2.43 % PfCRTDd2 control. Further, the “[3H]CQ transport, PfCRT3D7 (% PfCRT3D7 control)” value in test [2] (Experiment 1) was 100.93 % PfCRT3D7 control; in test [2] (Experiment 2), 94.28 % PfCRT3D7 control; in test [2] (Experiment 3), 100.75 % PfCRT3D7 control; in test [2] (Experiment 4), 102.32 % PfCRT3D7 control.

For VLSPAD [VD-6], the “PfCRT-mediated [3H]CQ transport, cis-inhibition (% PfCRTEcu1110 control)” value is on record as 58 ± 3.5 % PfCRTEcu1110 control in test [3] ([test solute] = 0.5 mM), 48 ± 3.2 % PfCRTEcu1110 control in test [3] ([test solute] = 1 mM) and 39 ± 0.4 % PfCRTEcu1110 control in test [3] ([test solute] = 2 mM). Moreover, the “[3H]CQ transport (% PfCRTEcu1110 control), cis-inhibition, PfCRTEcu1110” value in test [3] ([test solute] = 2 mM) was found to be 12 ± 0.01 % PfCRTEcu1110 control. Further, the results for the “PfCRT-mediated [3H]CQ transport, cis-inhibition (% PfCRTDd2 control)” value in test [4] ([test solute] = 0.5 mM), in test [4] ([test solute] = 1 mM) and in test [4] ([test solute] = 2 mM) were 47 ± 1.8 % PfCRTDd2 control, 28 ± 1.1 % PfCRTDd2 control and 29 ± 1.0 % PfCRTDd2 control, respectively. In addition, the “PfCRT-mediated [3H]CQ transport, trans-stimulation (% PfCRTEcu1110 control)” value came out at 98 ± 3.2 % PfCRTEcu1110 control in test [5] (setting [7]) and 98 ± 3.3 % PfCRTEcu1110 control in test [5] (setting [8]). Also, the entries for the “[3H]CQ transport (% PfCRTDd2 control), trans-stimulation, PfCRTEcu1110” value in test [5] (setting [9]) and in test [5] (setting [10]) were 30 ± 1.3 % PfCRTEcu1110 control and 30 ± 1.4 % PfCRTEcu1110 control, respectively. Besides, the “PfCRT-mediated [3H]CQ transport, trans-stimulation (% PfCRTDd2 control)” value in test [6] (setting [7]) was found to be 101 ± 3.6 % PfCRTDd2 control; in test [6] (setting [8]), 98 ± 3.3 % PfCRTDd2 control. The “[3H]CQ transport (% PfCRTDd2 control), trans-stimulation, PfCRTDd2” value in test [6] (setting [9]) is 101 ± 3.6 % PfCRTDd2 control; in test [6] (setting [10]) it was 98 ± 3.3 % PfCRTDd2 control. Besides, the “PfCRT-mediated [3H]CQ transport, trans-stimulation (% PfCRT3D7 control)” value (“PfCRT-mediated … (% PfCRT3D7 control)” for short) was found to be 97 ± 4.2 % PfCRT3D7 control in test [2] (setting [7]) and 95 ± 4.1 % PfCRT3D7 control in test [2] (setting [8]).

VVYPWTQR [VR-8]: the “PfCRT-mediated [3H]CQ transport, cis-inhibition (% PfCRTEcu1110 control)” value was found to be 42 ± 2.6 % PfCRTEcu1110 control in test [3] ([test solute] = 0.5 mM), 32 ± 1.9 % PfCRTEcu1110 control in test [3] ([test solute] = 1 mM) and 21 ± 1.4 % PfCRTEcu1110 control in test [3] ([test solute] = 2 mM). Besides, the results for the “PfCRT-mediated [3H]CQ transport, cis-inhibition (% PfCRTDd2 control)” value in test [4] ([test solute] = 0.5 mM), in test [4] ([test solute] = 1 mM) and in test [4] ([test solute] = 2 mM) were 40 ± 3.2 % PfCRTDd2 control, 22 ± 1.1 % PfCRTDd2 control and 11 ± 0.8 % PfCRTDd2 control, respectively. Besides, the “PfCRT-mediated [3H]CQ transport, trans-stimulation (% PfCRTEcu1110 control)” value was 97 ± 1.8 % PfCRTEcu1110 control in test [5] (setting [7]) and 98 ± 3.7 % PfCRTEcu1110 control in test [5] (setting [8]). In addition, the “PfCRT-mediated [3H]CQ transport, trans-stimulation (% PfCRTDd2 control)” value was determined as 96 ± 1.4 % PfCRTDd2 control in test [6] (setting [7]) and 95 ± 1.5 % PfCRTDd2 control in test [6] (setting [8]). For the same substance, the “PfCRT-mediated … (% PfCRT3D7 control)” value in test [2] (setting [7]) was 96 ± 2.8 % PfCRT3D7 control; in test [2] (setting [8]) it was 98 ± 2.9 % PfCRT3D7 control.

As to YIGSR [YR-5], the “PfCRT-mediated [3H]CQ transport, cis-inhibition (% PfCRTEcu1110 control)” value in test [3] ([test solute] = 0.5 mM) came to 71 ± 1.6 % PfCRTEcu1110 control; in test [3] ([test solute] = 1 mM) it was 55 ± 1.4 % PfCRTEcu1110 control; in test [3] ([test solute] = 2 mM), 49 ± 2.4 % PfCRTEcu1110 control. In addition, the entries for the “[3H]CQ transport (% PfCRTEcu1110 control), cis-inhibition, PfCRTEcu1110” value in test [3] ([test solute] = 0.5 mM), in test [3] ([test solute] = 1 mM) and in test [3] ([test solute] = 2 mM) were 22 ± 0.1 % PfCRTEcu1110 control, 17 ± 0.4 % PfCRTEcu1110 control and 15 ± 0.1 % PfCRTEcu1110 control, respectively. Besides, the results for the “PfCRT-mediated [3H]CQ transport, cis-inhibition (% PfCRTDd2 control)” value in test [4] ([test solute] = 0.5 mM), in test [4] ([test solute] = 1 mM) and in test [4] ([test solute] = 2 mM) were 73 ± 3.9 % PfCRTDd2 control, 58 ± 3.1 % PfCRTDd2 control and 61 ± 2.9 % PfCRTDd2 control, respectively. For the same substance, the “PfCRT-mediated [3H]CQ transport, trans-stimulation (% PfCRTEcu1110 control)” value in test [5] (setting [7]) is given as 98 ± 4.2 % PfCRTEcu1110 control; in test [5] (setting [8]), 96 ± 3.5 % PfCRTEcu1110 control. Moreover, the “[3H]CQ transport (% PfCRTDd2 control), trans-stimulation, PfCRTEcu1110” value stood at 30 ± 1.7 % PfCRTEcu1110 control in test [5] (setting [9]) and 29 ± 1.3 % PfCRTEcu1110 control in test [5] (setting [10]). Besides, the “PfCRT-mediated [3H]CQ transport, trans-stimulation (% PfCRTDd2 control)” value in test [6] (setting [7]) was found to be 94 ± 4.6 % PfCRTDd2 control; in test [6] (setting [8]), 96 ± 4.1 % PfCRTDd2 control. Besides, the “[3H]CQ transport (% PfCRTDd2 control), trans-stimulation, PfCRTDd2” value was 94 ± 4.6 % PfCRTDd2 control in test [6] (setting [9]) and 96 ± 4.1 % PfCRTDd2 control in test [6] (setting [10]). Further, the entries for the “PfCRT-mediated … (% PfCRT3D7 control)” value in test [2] (setting [7]) and in test [2] (setting [8]) were 98 ± 2.6 % PfCRT3D7 control and 94 ± 2.1 % PfCRT3D7 control, respectively.

In the case of YPWTQ [YQ-5], the entries for the “PfCRT-mediated [3H]CQ transport, cis-inhibition (% PfCRTEcu1110 control)” value in test [3] ([test solute] = 0.5 mM), in test [3] ([test solute] = 1 mM) and in test [3] ([test solute] = 2 mM) were 72 ± 6.9 % PfCRTEcu1110 control, 61 ± 1.4 % PfCRTEcu1110 control and 49 ± 2.5 % PfCRTEcu1110 control, respectively. The “[3H]CQ transport (% PfCRTEcu1110 control), cis-inhibition, PfCRTEcu1110” value was found to be 23 ± 0.4 % PfCRTEcu1110 control in test [3] ([test solute] = 0.5 mM), 19 ± 0.3 % PfCRTEcu1110 control in test [3] ([test solute] = 1 mM) and 15 ± 0.5 % PfCRTEcu1110 control in test [3] ([test solute] = 2 mM). The results for the “PfCRT-mediated [3H]CQ transport, cis-inhibition (% PfCRTDd2 control)” value in test [4] ([test solute] = 0.5 mM), in test [4] ([test solute] = 1 mM) and in test [4] ([test solute] = 2 mM) were 67 ± 2.2 % PfCRTDd2 control, 51 ± 3.2 % PfCRTDd2 control and 27 ± 1.1 % PfCRTDd2 control, respectively. In addition, the results for the “PfCRT-mediated [3H]CQ transport, trans-stimulation (% PfCRTEcu1110 control)” value in test [5] (setting [7]) and in test [5] (setting [8]) were 99 ± 3.5 % PfCRTEcu1110 control and 98 ± 2.2 % PfCRTEcu1110 control, respectively. For the same substance, the entries for the “[3H]CQ transport (% PfCRTDd2 control), trans-stimulation, PfCRTEcu1110” value in test [5] (setting [9]) and in test [5] (setting [10]) were 30 ± 1.0 % PfCRTEcu1110 control and 30 ± 1.3 % PfCRTEcu1110 control, respectively. The “PfCRT-mediated [3H]CQ transport, trans-stimulation (% PfCRTDd2 control)” value came out at 97 ± 4.6 % PfCRTDd2 control in test [6] (setting [7]) and 96 ± 2.7 % PfCRTDd2 control in test [6] (setting [8]). The “[3H]CQ transport (% PfCRTDd2 control), trans-stimulation, PfCRTDd2” value in test [6] (setting [9]) amounted to 97 ± 4.6 % PfCRTDd2 control; in test [6] (setting [10]) it was 96 ± 2.7 % PfCRTDd2 control. Also, the “PfCRT-mediated … (% PfCRT3D7 control)” value in test [2] (setting [7]) is listed as 96 ± 3.5 % PfCRT3D7 control; in test [2] (setting [8]), 97 ± 3.7 % PfCRT3D7 control.
